18 compounds from ChEMBL document CHEMBL1165872, “Synthesis and molecular docking studies of 1-phenyl-4-glycosyl-dihydropyridines as potent antileishmanial agents” (Eur J Med Chem, 2010) can be followed below.

Series [1] is described as follows: Selectivity index, ratio of CC50 for mouse J774A1 cells to IC50 for Leishmania donovani MHOM/IN/Dd8 amastigote. Format: functional, J774.A1.
Series [2] concerns Leishmania donovani. Kind of series: Antileishmanial activity against Leishmania donovani MHOM/IN/Dd8 promastigote carrying firefly luciferase gene assessed as relative luminescence unit after 72 hrs. It is filed as functional, organism-based.
Series [3] deals with Leishmania donovani. Kind of series: Antileishmanial activity against Leishmania donovani MHOM/IN/Dd8 promastigote carrying firefly luciferase gene assessed as relative luminescence unit at 40 ug/mL after 72 hrs. Format: functional. Conditions: MHOM/IN/Dd8, 72 h; call rule not given here.
The subject of series [4] is Leishmania donovani. Kind of series: Antileishmanial activity against Leishmania donovani MHOM/IN/Dd8 amastigote infected in hamster assessed as inhibition of amastigote multiplication at 50 mg/kg, ip for 5 days. Format: functional. Conditions: 120 h, route intraperitoneal.
The subject of series [5] is Leishmania donovani. Kind of series: Antileishmanial activity against Leishmania donovani MHOM/IN/Dd8 amastigote carrying firefly luciferase gene infected in mouse J774A1 cells assessed as relative luminescence unit after 72 hrs. Format: functional, organism-based, J774.A1.
The nature of series [6]: Cytotoxicity against mouse J774A1 cells after 72 hrs by MTT assay. Format: cell-based, J774.A1.
For series [7], the system named is Leishmania donovani. Kind of series: Antileishmanial activity against Leishmania donovani MHOM/IN/Dd8 amastigote infected in hamster assessed as inhibition of amastigote multiplication at 30 mg/kg, po for 5 days. It is filed as functional. Conditions: MHOM/IN/Dd8, 120 h.
Series [8] relates to Leishmania donovani. Description: Antileishmanial activity against Leishmania donovani MHOM/IN/Dd8 amastigote infected in hamster assessed as inhibition of amastigote multiplication at 40 mg/kg, ip for 5 days. Format: functional. Conditions: 120 h, route intraperitoneal.
Setting [9] is: Leishmania donovani, MHOM/IN/Dd8, 72 h, read-out: IC50.
[10] abbreviates: Leishmania donovani, MHOM/IN/Dd8, J774.A1, 72 h, read-out: IC50.

Converted amounts (≈) assume the structure as drawn.

On to `COC(=O)C1=C(C)N(c2ccc(OC)cc2)C(C)=C(C(=O)OC)C1[C@@H]1O[C@H]2OC(C)(C)O[C@H]2[C@@H]1OCc1ccccc1`, for which the “Ratio CC50/IC50” value in series [1] was 18.93. Further, the IC50 was determined as 1.94 µg/mL (≈ 3.35 µM) with Leishmania donovani [2] (setting [9]) and 0.75 µg/mL (≈ 1.29 µM) in the series with Leishmania donovani [5] (setting [10]). For the same compound, the inhibition at 40 µg/mL in the series with Leishmania donovani [3] is above 80%. In addition, the inhibition in vivo at 50 mg/kg in the series on Leishmania donovani [4] came out at 26.8%. In addition, in series [6], the CC50 at 72 h was 14.1 µg/mL (≈ 24.4 µM).

On to `CCOC(=O)C1=C(C)N(c2ccc(OC)cc2)C(C)=C(C(=O)OCC)C1[C@@H]1O[C@H]2OC(C)(C)O[C@H]2[C@@H]1OCc1ccccc1`, for which the “Ratio CC50/IC50” value in series [1] amounted to 7.42. The concentration for half-maximal inhibition (IC50) in the series with Leishmania donovani [2] (setting [9]) amounted to 1.65 µg/mL (≈ 2.72 µM); with Leishmania donovani [5] (setting [10]) it was 8.08 µg/mL (≈ 13.3 µM). The inhibition at 40 µg/mL in the series on Leishmania donovani [3] is above 80%. The midpoint of cytotoxicity in series [6], the CC50 at 72 h, lay at 59.9 µg/mL (≈ 98.6 µM).

Take `COC(=O)C1=C(C)N(c2ccc(Cl)cc2)C(C)=C(C(=O)OC)C1[C@@H]1O[C@H]2OC(C)(C)O[C@H]2[C@@H]1OCc1ccccc1`: in series [1], the “Ratio CC50/IC50” value was 1.109. For the same compound, the 50% inhibitory concentration (IC50) in the series with Leishmania donovani [2] (setting [9]) came out at 1.86 µg/mL (≈ 3.18 µM); in the series on Leishmania donovani [5] (setting [10]), 3.8 µg/mL (≈ 6.51 µM). The inhibition at 40 µg/mL in the series on Leishmania donovani [3] is above 80%. In addition, it took 4.22 µg/mL (≈ 7.23 µM) to reach half-maximal cytotoxicity in series [6] (CC50 at 72 h).

On to `COC(=O)C1=C(C)N(c2ccc(N)cc2)C(C)=C(C(=O)OC)C1[C@@H]1O[C@H]2OC(C)(C)O[C@H]2[C@@H]2OC(C)(C)O[C@@H]21`, for which the IC50 entry in the series with Leishmania donovani [2] and with Leishmania donovani [5] (j774.a1) was “Not Active” in each case. In addition, the inhibition at 40 µg/mL in the series with Leishmania donovani [3] is above 80%.

For the compound `COC(=O)C1=C(C)N(c2ccc(Cl)c(Cl)c2)C(C)=C(C(=O)OC)C1[C@@H]1O[C@H]2OC(C)(C)O[C@H]2[C@@H]1O`, in series [1], the “Ratio CC50/IC50” value was 2.96. Besides, the IC50 in the series with Leishmania donovani [2] (setting [9]) amounted to 3.72 µg/mL (≈ 7.04 µM); with Leishmania donovani [5] (setting [10]), 10.1 µg/mL (≈ 19.2 µM). The inhibition at 40 µg/mL in the series with Leishmania donovani [3] is above 80%. Further, the CC50 at 72 h in series [6] stood at 29.9 µg/mL (≈ 56.7 µM).

Take `CCOC(=O)C1=C(C)N(c2ccc(C)cc2)C(C)=C(C(=O)OCC)C1[C@@H]1O[C@H]2OC(C)(C)O[C@H]2[C@@H]1OC`: the IC50 result in the series with Leishmania donovani [2] and in the series with Leishmania donovani [5] (j774.a1) was “Not Active” throughout. In addition, in the series with Leishmania donovani [3], the inhibition at 40 µg/mL is above 80%.

Turning to `COC(=O)C1=C(C)N(c2ccc(Cl)cc2)C(C)=C(C(=O)OC)C1[C@@H]1O[C@H]2OC(C)(C)O[C@H]2[C@@H]1OC`, the “Ratio CC50/IC50” value in series [1] stood at 4.32. The IC50 with Leishmania donovani [2] (setting [9]) came out at 1.94 µg/mL (≈ 3.82 µM); in the series on Leishmania donovani [5] (setting [10]) it was 19.1 µg/mL (≈ 37.5 µM). Also, the inhibition at 40 µg/mL in the series on Leishmania donovani [3] was above 80%. In series [6], this compound gave a CC50 at 72 h of 82.4 µg/mL (≈ 162 µM).

On to `COC(=O)C1=C(C)N(c2ccc(F)cc2)C(C)=C(C(=O)OC)C1[C@@H]1O[C@H]2OC(C)(C)O[C@H]2[C@@H]1OCc1ccccc1`, for which the IC50 was 3.67 µg/mL (≈ 6.47 µM) in the series with Leishmania donovani [2] (setting [9]) and “Not Active” in the series with Leishmania donovani [5] (j774.a1). In addition, in the series with Leishmania donovani [3], the inhibition at 40 µg/mL was above 80%.

In the case of `COC(=O)C1=C(C)N(c2ccc(C)cc2)C(C)=C(C(=O)OC)C1[C@@H]1O[C@H]2OC(C)(C)O[C@H]2[C@@H]1OCc1ccccc1`, the results for the IC50 with Leishmania donovani [2] (setting [9]) and with Leishmania donovani [5] (setting [10]) were 3.62 µg/mL (≈ 6.42 µM) and 4.89 µg/mL (≈ 8.68 µM), respectively. For the same compound, the inhibition at 40 µg/mL in the series on Leishmania donovani [3] was above 80%. Besides, in series [6], the CC50 at 72 h amounted to 7.66 µg/mL (≈ 13.6 µM).

Turning to `COC(=O)C1=C(C)N(c2ccc(OC)cc2)C(C)=C(C(=O)OC)C1[C@@H]1O[C@H]2OC(C)(C)O[C@H]2[C@@H]1OC`, the “Ratio CC50/IC50” value in series [1] is on record as 4.21. For the same compound, the IC50 is 12.4 µg/mL (≈ 24.6 µM) with Leishmania donovani [2] (setting [9]) and 4.42 µg/mL (≈ 8.78 µM) in the series on Leishmania donovani [5] (setting [10]). Also, the inhibition at 40 µg/mL with Leishmania donovani [3] is above 80%. In series [6], the half-maximal cytotoxic concentration (CC50) at 72 h was 18.6 µg/mL (≈ 37 µM).

As to `COC(=O)C1=C(C)N(c2ccc(Br)cc2)C(C)=C(C(=O)OC)C1[C@@H]1O[C@H]2OC(C)(C)O[C@H]2[C@@H]1OC`, in series [1], the “Ratio CC50/IC50” value worked out at 13.58. Besides, the IC50 in the series with Leishmania donovani [2] (setting [9]) turned out to be 0.88 µg/mL (≈ 1.59 µM); in the series with Leishmania donovani [5] (setting [10]), 3.57 µg/mL (≈ 6.46 µM). Also, the inhibition at 40 µg/mL in the series with Leishmania donovani [3] was above 80%. Also, the inhibition in vivo at 50 mg/kg with Leishmania donovani [4] is 43.9%. The same compound showed a CC50 at 72 h in series [6] of 48.5 µg/mL (≈ 87.8 µM).

For `COC(=O)C1=C(C)N(c2ccc(C)cc2)C(C)=C(C(=O)OC)C1[C@@H]1O[C@H]2OC(C)(C)O[C@H]2[C@@H]1OC`, in series [1], the “Ratio CC50/IC50” value is 7.43. In addition, the IC50 was found to be 1.74 µg/mL (≈ 3.57 µM) in the series with Leishmania donovani [2] (setting [9]) and 4.45 µg/mL (≈ 9.13 µM) in the series on Leishmania donovani [5] (setting [10]). In addition, in the series on Leishmania donovani [3], the inhibition at 40 µg/mL was above 80%. Besides, in the series on Leishmania donovani [4], the inhibition in vivo at 50 mg/kg was 58.8%. This compound showed a CC50 at 72 h in series [6] of 33.1 µg/mL (≈ 67.8 µM).

Consider `CCOC(=O)C1=C(C)N(c2ccccc2OC)C(C)=C(C(=O)OCC)C1[C@@H]1O[C@H]2OC(C)(C)O[C@H]2[C@@H]1OC`, for which the “Ratio CC50/IC50” value in series [1] is 8.04. For the same compound, the IC50 in the series with Leishmania donovani [2] (setting [9]) amounted to 0.22 µg/mL (≈ 0.414 µM); in the series with Leishmania donovani [5] (setting [10]), 6.18 µg/mL (≈ 11.6 µM). For the same compound, the inhibition at 40 µg/mL with Leishmania donovani [3] was above 80%. Besides, the inhibition in vivo at 50 mg/kg in the series on Leishmania donovani [4] is 49.7%. Further, it took 49.7 µg/mL (≈ 93.5 µM) to reach half-maximal cytotoxicity in series [6] (CC50 at 72 h).

As to `COC(=O)C1=C(C)N(c2ccc(OC)cc2)C(C)=C(C(=O)OC)C1[C@@H]1O[C@H]2OC(C)(C)O[C@H]2[C@@H]2OC(C)(C)O[C@@H]21`, the IC50 entry with Leishmania donovani [2] and in the series with Leishmania donovani [5] (j774.a1) was “Not Active” each time. In addition, in the series with Leishmania donovani [3], the inhibition at 40 µg/mL was above 80%.

On to `COC(=O)C1=C(C)N(c2ccc(Cl)cc2)C(C)=C(C(=O)OC)C1[C@@H]1O[C@H]2OC(C)(C)O[C@H]2[C@@H]2OC(C)(C)O[C@@H]21`, for which the “Ratio CC50/IC50” value in series [1] is on record as 1.06. Besides, the results for the IC50 with Leishmania donovani [2] (setting [9]) and with Leishmania donovani [5] (setting [10]) were 4.17 µg/mL (≈ 7.39 µM) and 14.3 µg/mL (≈ 25.4 µM), respectively. Besides, the inhibition at 40 µg/mL in the series with Leishmania donovani [3] is above 80%. Further, the CC50 at 72 h in series [6] came to 15.2 µg/mL (≈ 27 µM).

Consider `COC(=O)C1=C(C)N(c2ccc(Cl)cc2)C(C)=C(C(=O)OC)C1[C@@H]1O[C@H]2OC(C)(C)O[C@H]2[C@@H]1O`, for which the “Ratio CC50/IC50” value in series [1] amounted to 9.21. For the same compound, the values for the IC50 in the series with Leishmania donovani [2] (setting [9]) and in the series with Leishmania donovani [5] (setting [10]) were 0.86 µg/mL (≈ 1.74 µM) and 3.85 µg/mL (≈ 7.79 µM), respectively. Moreover, the inhibition at 40 µg/mL in the series on Leishmania donovani [3] was above 80%. In addition, the inhibition in vivo at 50 mg/kg with Leishmania donovani [4] was 44.9%. This compound also gave a CC50 at 72 h in series [6] of 35.5 µg/mL (≈ 71.9 µM).

For `CCCCCCCCCCCCCCCCOP(=O)([O-])OCC[N+](C)(C)C` [MILTEFOSINE], the “Ratio CC50/IC50” value in series [1] is given as 2.58. The 50% inhibitory concentration (IC50) in the series on Leishmania donovani [2] (setting [9]) came to 0.643 µg/mL (≈ 1.58 µM); in the series with Leishmania donovani [5] (setting [10]), 12.1 µg/mL (≈ 29.7 µM). For the same compound, the inhibition in vivo at 30 mg/kg in the series with Leishmania donovani [7] was determined as 95%. The compound also yielded a CC50 at 72 h in series [6] of 31.3 µg/mL (≈ 76.8 µM).

Take `N=C(N)c1ccc(OCCCCCOc2ccc(C(=N)N)cc2)cc1` [PENTAMIDINE]: in series [1], the “Ratio CC50/IC50” value is recorded as 1.08. Further, the IC50 was determined as 3.23 µg/mL (≈ 9.49 µM) in the series with Leishmania donovani [2] (setting [9]) and 3.59 µg/mL (≈ 10.5 µM) in the series with Leishmania donovani [5] (setting [10]). Also, the inhibition in vivo at 40 mg/kg in the series on Leishmania donovani [8] was found to be 92%. The compound also registered a CC50 at 72 h in series [6] of 3.91 µg/mL (≈ 11.5 µM).
